Laboratory results reported in patent US20100034839A1, “METHODS FOR TREATING VIRAL DISORDERS” (priority 2008, published 2010).
No end group written: not given here. *: point of attachment. Biotin = O=C1N[C@H]2[C@H](CS[C@H]2CCCCC(=O)*)N1

Legend:
[1] = system: mouse splenic B cells; test: TLR activation of mouse splenic B cells: ectopic CLIP in MHC class II; type: cell-based; details: for exogenous CLIP expression on activated mouse B cells: treatment in vitro with Toll ligand, FIG. 12d
Description: FIG. 12 depicts TLR activation of mouse splenic B cells results in ectopic CLIP in MHC class II. FIG. 12a: LPS activation of spleen cells from B6.129 mice (H-2b). B cells are detected by staining with PE conjugated anti-mouse B220, shown on Y-axis, versus staining with 15G4-FITC anti-mouse CLIP/I-Ab, as shown on the X-axis. A representative of four experiments at unique time points, 0 to 72 hours by 24-hour increments, left to right, is shown. FIG. 12b (linear representation from FIG. 12a): changes in percentages of CLIP+ B cells, left Y-axis, and quantitative depiction of increasing mean fluorescence intensity of CLIP/I-Ab staining, right Y-axis. FIG. 12c: antigen receptor engagement increases cell surface MHC class II but not ectopic CLIP. B6.129 splenocytes, untreated or treated in vitro with anti-immunoglobulin (as a surrogate for antigen) or CpG-ODN were stained with anti-mouse B220-PE versus 15G4-FITC anti-mouse CLIP/I-Ab (bars, left Y-axis) or with anti-mouse B220-PE versus anti-mouse MHC class II-FITC (I-Ab) (line graph, right Y-axis). FIG. 12d: toll ligands 9, 10 used to activate cells, listed from top down, Poly I:C, Pam3Cys, R848, LPS, CpG-ODN, and no treatment, as indicated. Shown are percentages of CLIP+ B cells in splenocytes stimulated […] from B6.129 mice, left panel; H2M-deficient mice, middle panel; Ii-deficient mice, right panel.
Total splenocytes, from either B6.129, Ii-deficient, or H2M-deficient mice were cultured with LPS for 24, 48, 72, or 96 hours as indicated. Cells were harvested and stained by two-color fluorescence using 15G4-FITC anti-mouse CLIP/I-A^b versus anti-mouse B220 PE.
Freshly isolated splenocytes, single cell suspensions of lymph node cells, resting (or activated) B cells, or primed B cells were isolated from B6.129, Ii-deficient, or H2M-deficient mice and cultured in 24 well plates in complete RPMI medium, with or without the appropriate Toll ligand, at 10^6 cells/ml. Cells were cultured for 24, 48, 72, 96, or up to 144 hours. Cells were harvested and stained by flow cytometric analysis using either a Beckman Coulter Excel or a Beckman Coulter FC500 flow cytometer. Cells were stained by two-color fluorescence using 15G4-FITC anti-mouse CLIP/I-A^b versus anti-mouse B220 PE. For co-culture experiments (5×10^5) were combined with T cells (5×10^4) in 24 well plates in complete medium, with or without the appropriate antigen. Experiments with 3A9, 2A11 or A6.A2 employed 3 mg/ml tryptic digest of HEL as a source of pre-processed antigen, i.e., peptide. Cultures were incubated overnight at […] in a humidified 5% CO2, 95% air incubator.
Multi-parameter flow cytometric analysis for the fluorescent detection of ectopic CLIP, mouse B220, human CD19 or CD20, human CLIP, human HLA-DR, and human CLIP or apoptosis were performed using a Beckman Coulter Excel or a Beckman Coulter FC500 flow cytometer (Beckman Coulter, Hialeah, Fla.). Mouse splenic cells were cultured in complete RPMI for the times indicated. Resting, primed, or activated B cells were cultured in the presence of T cells (vide supra). At the end of 16 h of culture, the cells were harvested and washed. Ethidium bromide (detected by red fluorescence) was added immediately before analysis of each tube. The cells were analyzed by first gating using forward vs. side scatter then using increased fluorescence as a measure of detection of the indicated cell surface antigens.

[2] = system: B cell surface CLIP; test: B cell surface CLIP after 2-Deoxyglucose and dichloroacetate (FIG. 4); type: cell-based
[3] = system: Raji or Daudi cells; test: Cell surface CLIP and CD74 levels after MKN1 (bioCLIP); type: cell-based, human
Description: The ability of MKN1 (bioCLIP) to alter cell surface CLIP and CD74 levels was also determined using Raji or Daudi cells.

[4] = system: human B cells from peripheral blood mononuclear cells (PBMC); test: TLR activation of human B cells in PBMC cultures: ectopic CLIP; type: cell-based; details: PBMC from five healthy donors, 24 hours, 5 μg per ml
Description: (§1) FIG. 13 depicts TLR activation results in ectopic CLIP expression on human B cells from peripheral blood mononuclear cells (PBMC) cultures. FIG. 13a: human PBMC from five donors were cultured for 24 hours with toll ligands (CpG-ODN, LPS, Pam3Cys, and Poly I:C) and were stained with a pan anti-HLA-DR-FITC antibody (values of isotype controls were subtracted from the specific stains, ΔMFI). FIG. 13b: cells were stained using anti-human CLIP-FITC versus CD19-PE (values of isotype controls were subtracted from the specific stains, ΔMFI). For FIGS. 13a & 13b: nil vs. CpG p=0.06821; nil vs. LPS p=0.0390; nil vs. PAM p=0.0124. FIG. 13c: cells were stained for CLIP-FITC versus CD19-PE as described for FIG. 13b. The data represent the percent of total PBMC that are CLIP+ B cells subsequent to treatment. For FIG. 13c: nil vs. CpG p=0.0058; nil vs. LPS p=0.0254. […]
(§2) PBMC were prepared from a total of seven adult normal donors, five for examining the effects of TLR binding on the percentage of ectopic CLIP^+ B cells and changes in mean fluorescence intensity of the CLIP staining resulting from TLR stimulation with CpG-ODN, LPS, Pam-3-Cys, and Poly I:C. […] Cells were analyzed using either a BD FacsCalibur, for the five samples, or a Coulter FC500 for the two tissue typed samples. […]

[5] = system: cell surface CLIP on Raji and Daudi cells; test: Competition of synthetic peptides with cell surface CLIP (Fitc anti-human CLIP); type: cell-based; details: biotinylated competing peptide
Excerpt: Based on a computational model comparing the peptide content of TNP mixture and identifying those peptides that would have the likeliest ability to compete for the peptide/antigen binding site for MHC class II (human HLA-DR, DP, and DQ), several peptide candidates were synthesized and examined for activity. The purpose of the study was to determine if synthetic peptides can compete for binding with CLIP peptides as measured with either Fitc anti-human CLIP antibody or, comparatively in the case of biotinylated peptides, with Streptavidin.
Cell Culture Conditions: The Raji and Daudi cell lines were purchased from American Type Culture Collection, were thawed, and grown in RPMI 1640 medium supplemented with standard supplements, including 10% fetal calf serum, gentamycin, penicillin, streptomycin, sodium pyruvate, HEPES buffer, 1-glutamine, and 2-ME.
Protocol: Cells were plated into a 12 well plate with 3 mls total volume containing approximately 1.5×10^6/well for Daudi cells and 3.0×10^6/well for Raji cells. Treatment groups included no treatment as control; MKN 3 and MKN 5 at 50 microMolar final concentration based on the reported molarity of the synthesized compounds.
The cells were incubated at 37° C. in an atmosphere containing 5% CO2 and approximately 92% humidity. The cells were incubated for 4 and 24 hours. At each time point, the cells from that experimental time were harvested and stained for flow cytometric analysis of cell surface expression of CLIP (MHC Class II invariant peptide, human) by using the commercially available (Becton/Dickinson/PHarmingen) anti-human CLIP Fitc. Catalogue #555981 versus Streptavidin.
Harvested cells were stained using standard staining procedure that called for a 1:100 dilution of Fitc-anti-human CLIP or isotype control versus 1:200 dilution of the commercially prepared Streptavidin. Following staining on ice for 25 minutes, cells were washed with PBS/FCS and resuspended in 100 microliters and added to staining tubes containing 400 microliters of PBS. Samples were acquired and analyzed on a Coulter Excel Flow Cytometer.
In the Histogram analyses of FIGS. 5-7 the Y axis represents cell number of the 5000 live cells versus the X axis which is a reflection of relative Fitc fluorescence versus Streptavidin-PE (eBioscience, Cat. #12-4317) that will bind with high affinity to cell-bound biotinylated peptides. The distance between the histogram from the isotype control staining versus the histogram reflecting the specific stain and is a measure of level of cell surface CLIP or the biotinylated peptide when stained with Streptavidin on a population of live Raji or Daudi cells as indicated.

[6] = system: CLIP^+ B cells in human PBMC; test: Peptide replacement of CLIP on R848-activated human PBMC B cells; type: cell-based; details: PBMC of two donors cultured with R848 for 48 hours with peptide
Description: as §1, §2

Compound: (S)-(2,3-bis(palmitoyloxy)-(2RS)-propyl)-N-palmitoyl-(R)-Cys-(S)-Ser(S)-Lys4-OH, trihydrochloride [Pam3Cys]
- exogenous CLIP expression on activated mouse B cells [1]: resulted in exogenous CLIP expression on the activated mouse B cells

Compound: O=CC[C@@H](O)[C@H](O)[C@H](O)CO [2-Deoxyglucose, 2-deoxy-D-glucose]
- B cell surface CLIP [2]: affects B cell surface CLIP

Compound: SGGGSKMRMATPLLMQALY (Biotin-SGGGSKMRMATPLLMQALY) [MKN1]
- cell surface CLIP and CD74 levels [3]: alters cell surface CLIP and CD74 levels

Compound: lipopolysaccharide [LPS]
- exogenous CLIP associated with MHC class II on splenic B cells ([1]; in vitro stimulation of resting mouse splenocytes, 0 to 72 hours): time-dependent increase in exogenous CLIP associated with MHC class II
- exogenous CLIP expression on activated mouse B cells [1]: resulted in exogenous CLIP expression on the activated mouse B cells
- ectopic CLIP on human B cells [4]: Statistically significant increases in ectopic CLIP

Compound: polyinosinic:polycytidylic acid [Poly I:C]
- exogenous CLIP expression on activated mouse B cells [1]: resulted in exogenous CLIP expression on the activated mouse B cells

Compound: KALVQNDTLLQVKG [SEQ ID NO 1]
- cell surface bound CLIP ([5]; 4 hours): small decreases in cell surface bound CLIP
- cell surface bound CLIP ([5]; 24 hours): significant decreases

Compound: ANSGIIGDITEEVGGQY [VGV-pB]
- percentage of CLIP^+ B cells and level of CLIP per B cell [6]: reduced the frequency of CLIP^+ B cells and the level of CLIP per cell in one individual but not the other

Compound: CCOCc1nc2c(N)nc3ccccc3c2n1CC(C)(C)O [R848, imidazoquinoline resiquimod]
- exogenous CLIP expression on activated mouse B cells [1]: resulted in exogenous CLIP expression on the activated mouse B cells
